Values quoted from earlier work in patent US20040143855A1, “Ion channels as targets for sleep-related drugs” (priority 2002, published 2004).

Legend:
Drosophila = conditions: flies given the drug
TREK-1 = molecular target: T1, TREK-1 (Homo sapiens, UniProt O95069); conditions: volatile general anesthetics
T1 sequence (O95069 1-426): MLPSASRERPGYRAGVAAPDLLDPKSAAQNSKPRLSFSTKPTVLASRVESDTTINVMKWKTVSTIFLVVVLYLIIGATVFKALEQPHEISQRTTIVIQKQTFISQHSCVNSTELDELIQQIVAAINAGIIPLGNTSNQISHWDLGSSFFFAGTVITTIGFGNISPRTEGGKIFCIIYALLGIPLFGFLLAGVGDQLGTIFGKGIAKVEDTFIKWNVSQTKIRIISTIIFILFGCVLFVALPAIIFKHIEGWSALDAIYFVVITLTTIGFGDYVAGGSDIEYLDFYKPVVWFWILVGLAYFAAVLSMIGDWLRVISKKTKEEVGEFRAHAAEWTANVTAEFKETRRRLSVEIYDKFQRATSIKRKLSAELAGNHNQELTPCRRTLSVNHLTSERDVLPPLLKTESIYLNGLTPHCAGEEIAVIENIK

Structure (SMILES)	sleep (amount) (Drosophila)	effect on TREK-1 channel (TREK-1)	sleep latency (Drosophila)
Cn1c(=O)c2c(ncn2C)n(C)c1=O [caffeine]	dose-dependent decrease in sleep		
ClC(Cl)Cl [chloroform]		activated	
CCOCC [diethylether]		activated	
FC(F)(F)C(Cl)Br (stereo not shown) [halothane]		activated	
OCCOCCN1CCN(C(c2ccccc2)c2ccc(Cl)cc2)CC1 (stereo not shown) [hydroxyzine]	increased sleep		reduced its latency
FC(F)OC(Cl)C(F)(F)F (stereo not shown) [isoflurane]		activated	
